# From patent US8183239B2, “Substituted piperazines and piperidines as modulators of the neuropeptide Y2 receptor” (Janssen Pharmaceutica NV, priority 2005, dated 2012)
# Biological target: T1, Y2 receptors (Homo sapiens, UniProt P49146)
# T1 construct: endogenous in cells; host or cells: KAN-Ts cells (membranes)
# T1 sequence (P49146 1-381): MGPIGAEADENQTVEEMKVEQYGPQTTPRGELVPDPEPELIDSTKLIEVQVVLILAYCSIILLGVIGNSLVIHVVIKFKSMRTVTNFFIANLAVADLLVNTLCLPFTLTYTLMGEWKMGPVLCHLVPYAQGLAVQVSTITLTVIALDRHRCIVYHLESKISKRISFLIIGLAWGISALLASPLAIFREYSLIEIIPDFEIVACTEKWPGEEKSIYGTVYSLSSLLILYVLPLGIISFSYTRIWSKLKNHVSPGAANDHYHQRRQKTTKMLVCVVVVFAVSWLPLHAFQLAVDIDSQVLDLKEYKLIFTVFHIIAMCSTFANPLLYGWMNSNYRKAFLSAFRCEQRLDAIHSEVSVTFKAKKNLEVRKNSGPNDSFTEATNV
# Test: Radioligand binding assay ([125I]PYY, KAN-Ts cell membranes)
# Conditions: Table 2, [125I]PYY 80 pM, average of results, read-out: IC50
# Outline: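 IC50 values are means of three to eight experiments run in duplicate, fitted sigmoidally against specific binding (defined by […]). Competition used 80 pM [^125I]PYY for 1 h at room temperature on KAN-Ts membranes carrying native Y2, with filtration and scintillation counting.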
row,SMILES,IC50 [nM]
1,"CCC(CC)C(=O)Nc1ccc(N2CCN(C(C(=O)N(CC)CC)c3ccc(F)c(F)c3)CC2)c(F)c1 (stereo not shown) [Example 201, N-(4-{4-[Diethylcarbamoyl-(3,4-difluoro-phenyl)-methyl]-piperazin-1-yl}-3-fluoro-phenyl)-2-ethyl-butyramide]",330
2,"CCN(CC)C(=O)C(c1ccccc1)N1CCN(c2ccc(NC(=O)C3CCCC3)cn2)CC1 (stereo not shown) [Example 202, Cyclopentanecarboxylic acid {6-[4-(diethylcarbamoyl-phenyl-methyl)-piperazin-1-yl]-pyridin-3-yl}-amide]",900
3,"CCC(CC)C(=O)Nc1ccc(N2CCN(C(C(=O)N(CC)CC)c3ccccc3)CC2)nc1 (stereo not shown) [Example 203, N-{6-[4-(Diethylcarbamoyl-phenyl-methyl)-piperazin-1-yl]-pyridin-3-yl}-2-ethyl-butyramide]",735
4,"CCN(CC)C(=O)C(c1ccccc1)C1CCN(c2ccc(NC(=O)C3CCCC3)cn2)CC1 (stereo not shown) [Example 204, Cyclopentanecarboxylic acid [4-(diethylcarbamoyl-phenyl-methyl)-3,4,5,6-tetrahydro-2H-[1,2′]bipyridinyl-5′-yl]-amide]",400
5,"CCC(CC)C(=O)Nc1ccc(N2CCC(C(C(=O)N(CC)CC)c3ccccc3)CC2)nc1 (stereo not shown) [Example 205, N-[4-(Diethylcarbamoyl-phenyl-methyl)-3,4,5,6-tetrahydro-2H-[1,2′]bipyridinyl-5′-yl]-2-ethyl-butyramide]",300
6,"CCC(CC)C(=O)Nc1ccc(N2CCC(C(C(=O)N3CCC(F)CC3)c3ccccc3)CC2)c(F)c1 (stereo not shown) [Example 206, 2-Ethyl-N-(3-fluoro-4-{4-[2-(4-fluoro-piperidin-1-yl)-2-oxo-1-phenyl-ethyl]-piperidin-1-yl}-phenyl)-butyramide]",20
7,"CCC(CC)C(=O)Nc1ccc(N2CCC(C(C(=O)N3CC(F)(F)C3)c3ccccc3)CC2)c(F)c1 (stereo not shown) [Example 207, N-(4-{4-[2-(3,3-Difluoro-azetidin-1-yl)-2-oxo-1-phenyl-ethyl]-piperidin-1-yl}-3-fluoro-phenyl)-2-ethyl-butyramide]",70
8,"CCC(CC)C(=O)Nc1ccc(N2CCC(C(C(=O)N3CCC(F)(F)CC3)c3ccccc3)CC2)c(F)c1 (stereo not shown) [Example 208, N-(4-{4-[2-(4,4-Difluoro-piperidin-1-yl)-2-oxo-1-phenyl-ethyl]-piperidin-1-yl}-3-fluoro-phenyl)-2-ethyl-butyramide]",20
9,"CCC(CC)C(=O)Nc1ccc(N2CCC(C(C(=O)N3CCC3)c3ccccc3)CC2)c(F)c1 (stereo not shown) [Example 209, N-{4-[4-(2-Azetidin-1-yl-2-oxo-1-phenyl-ethyl)-piperidin-1-yl]-3-fluoro-phenyl}-2-ethyl-butyramide]",100
10,"CCC(CC)C(=O)Nc1ccc(N2CCC(C(C(=O)N3CCC(F)(F)C3)c3ccccc3)CC2)c(F)c1 (stereo not shown) [Example 210, N-(4-{4-[2-(3,3-Difluoro-pyrrolidin-1-yl)-2-oxo-1-phenyl-ethyl]-piperidin-1-yl}-3-fluoro-phenyl)-2-ethyl-butyramide]",25
11,"CCC(CC)C(=O)Nc1ccc(N2CCC(C(C(=O)N3CCCC3)c3ccccc3)CC2)c(F)c1 (stereo not shown) [Example 211, 2-Ethyl-N-{3-fluoro-4-[4-(2-oxo-1-phenyl-2-pyrrolidin-1-yl-ethyl)-piperidin-1-yl]-phenyl}-butyramide]",26
12,"CCC(CC)C(=O)Nc1ccc(N2CCC(C(C(=O)NC3CC3)c3ccccc3)CC2)c(F)c1 (stereo not shown) [Example 212, N-{4-[4-(Cyclopropylcarbamoyl-phenyl-methyl)-piperidin-1-yl]-3-fluoro-phenyl}-2-ethyl-butyramide]",55
13,"CCC(CC)C(=O)Nc1ccc(N2CCC(C(C(=O)Nc3nc(C)cs3)c3ccccc3)CC2)c(F)c1 (stereo not shown) [Example 213, 2-Ethyl-N-(3-fluoro-4-{4-[(4-methyl-thiazol-2-ylcarbamoyl)-phenyl-methyl]-piperidin-1-yl}-phenyl)-butyramide]",30
14,"CCC(CC)C(=O)Nc1ccc(N2CCC(C(C(=O)OC)c3ccccc3)CC2)c(F)c1 (stereo not shown) [Example 214, {1-[4-(2-Ethyl-butyrylamino)-2-fluoro-phenyl]-piperidin-4-yl}-phenyl-acetic acid methyl ester]",40
15,"CCC(CC)C(=O)Nc1ccc(N2CCC(C(C(=O)N3CCCCC3)c3ccccc3)CC2)c(F)c1 (stereo not shown) [Example 215, 2-Ethyl-N-{3-fluoro-4-[4-(2-oxo-1-phenyl-2-piperidin-1-yl-ethyl)-piperidin-1-yl]-phenyl}-butyramide]",100
16,"CCC(CC)C(=O)Nc1ccc(N2CCC(C(C(=O)N3CCN(C)CC3)c3ccccc3)CC2)c(F)c1 (stereo not shown) [Example 216, 2-Ethyl-N-(3-fluoro-4-{4-[2-(4-methyl-piperazin-1-yl)-2-oxo-1-phenyl-ethyl]-piperidin-1-yl}-phenyl)-butyramide]",≥ 10000
17,"CCC(CC)C(=O)Nc1ccc(N2CCC(C(C(=O)N(CC)CC)c3ccccc3)CC2)c(C#N)c1 (stereo not shown) [Example 217, N-{3-Cyano-4-[4-(diethylcarbamoyl-phenyl-methyl)-piperidin-1-yl]-phenyl}-2-ethyl-butyramide]",10
18,"CCC(CC)C(=O)Nc1ccc(N2CCC(C(C(=O)N(CC)CC)c3ccccc3)CC2)c(Br)c1 (stereo not shown) [Example 219, N-{3-Bromo-4-[4-(diethylcarbamoyl-phenyl-methyl)-piperidin-1-yl]-phenyl}-2-ethyl-butyramide]",37
19,"CCN(CC)C(=O)C(c1ccccc1)C1CCN(c2ccc(NC(=O)C3CCCC3)cc2F)CC1 (stereo not shown) [Example 220, Cyclopentanecarboxylic acid {4-[4-(diethylcarbamoyl-phenyl-methyl)-piperidin-1-yl]-3-fluoro-phenyl}-amide]",40
20,"CCN(CC)C(=O)C(c1ccccc1)N1CCN(c2ccc(NC(=O)C3CCCC3)cc2C#N)CC1 (stereo not shown) [Example 221, Cyclopentanecarboxylic acid {3-cyano-4-[4-(diethylcarbamoyl-phenyl-methyl)-piperazin-1-yl]-phenyl}-amide]",48
21,"CCN(CC)C(=O)C(c1ccccc1)C1CCN(c2ccc(NC(=O)C3CCC3)cc2F)CC1 (stereo not shown) [Example 222, Cyclobutanecarboxylic acid {4-[4-(diethylcarbamoyl-phenyl-methyl)-piperidin-1-yl]-3-fluoro-phenyl}-amide]",63
22,"CCC(CC)C(=O)Nc1ccc(N2CCN(C(C(=O)N(CC)CC)c3ccccc3)CC2)c(Br)c1 (stereo not shown) [Example 223, N-{3-Bromo-4-[4-(diethylcarbamoyl-phenyl-methyl)-piperazin-1-yl]-phenyl}-2-ethyl-butyramide]",80
23,"CCN(CC)C(=O)C(c1ccccc1)N1CCN(c2ccc(NC(=O)C3CCCC3)c(F)c2C#N)CC1 (stereo not shown) [Example 224, Cyclopentanecarboxylic acid {3-cyano-4-[4-(diethylcarbamoyl-phenyl-methyl)-piperazin-1-yl]-2-fluoro-phenyl}-amide]",92
24,"CCC(CC)C(=O)Nc1cc(F)c(N2CCN(C(C(=O)N(CC)CC)c3ccccc3)CC2)cc1F (stereo not shown) [Example 225, N-{4-[4-(Diethylcarbamoyl-phenyl-methyl)-piperazin-1-yl]-2,5-difluoro-phenyl}-2-ethyl-butyramide]",107
25,"CCC(CC)C(=O)Nc1cc(F)c(N2CCN(C(C(=O)N(CC)CC)c3ccccc3)CC2)c(F)c1 (stereo not shown) [Example 226, N-{4-[4-(Diethylcarbamoyl-phenyl-methyl)-piperazin-1-yl]-3,5-difluoro-phenyl}-2-ethyl-butyramide]",95
